From patent US5118681A (priority 1989, dated 1992)
In brackets after ≈: the same amount, converted by molar mass. Where two headings read alike, the source gives them in different places.

Key:
Phytophthora infestans = assay: whole plant or invertebrate; format: in vivo; conditions: Phytophthora infestans, in Solanum lycopersicum, 96 h, read-out: % control TLB
[1] = tested on: Puccinia recondita (f. sp. tritici Races PKB and PLD); assay: whole plant or invertebrate; format: in vivo
Pseudomonas fluorescens = assay: Minimum Inhibitory Concentration Test, alternate (Table 4), Ps.fl; format: cell-based; conditions: Pseudomonas fluorescens, TSB, 72 hours, 30° C
Protocol: (§1) A 125 μl aliquot of 10,000 ppm test compound in acetone was added to 4.88 ml of TSB to provide a 250 ppm solution. From this solution, 100 μL was transferred to the first row of two microtiter plate columns. Both replicates and five additional compounds were all serially diluted 1:1 to a final concentration of 0.8 ppm in TSB.
(§2) Inoculation was accomplished by diluting a 24 hr Ps fl culture, four mls per 36 mls of phosphate buffer solution. A Dynatech autoinoculator was used to transfer 1.5 μl of this cell suspension to the microtiter plates. The plates were incubated at 30° C. for 3 days before the lowest concentration at which no growth occurs was recorded in the database. The SOK data and MIC test data on Ps.fl, Ps.ae, E.c, and S.a. bacteria and Candida albicans (C.alb), A.n and A.p fungi are listed in Table 4.

[2] = tested on: Pseudoperonospora cubensis; assay: whole plant or invertebrate; format: in vivo; conditions: Pseudoperonospora cubensis, in Cucumis sativus, 168 h; read-out: % control CDM
Piricularia oryzae = assay: whole plant or invertebrate; format: in vivo; conditions: Pyricularia oryzae, read-out: % control RB
[3] = tested on: Pellicularia filamentosa (f. sp. sasiki); assay: whole plant or invertebrate; format: in vivo; conditions: 120 h; read-out: % control RSB
A.n = assay: Minimum Inhibitory Concentration Test, alternate (Table 4), A.n; format: cell-based, Aspergillus niger; conditions: Aspergillus niger, TSB, 72 hours
Protocol: as §1, §2

[4] = tested on: Erysiphe graminis (f. sp. tritici); assay: whole plant or invertebrate; format: in vivo; conditions: Blumeria graminis; read-out: % control WPM
[5] = Puccinia recondita, 240 h; read-out: % control WLR

SMILES | pest or weed control at 100 ppm (Phytophthora infestans) [%] | pest or weed control at 100 ppm [1, 5] [%] | MIC (Pseudomonas fluorescens) [µg/mL] | pest or weed control at 100 ppm [2] [%] | pest or weed control at 100 ppm (Piricularia oryzae) [%] | pest or weed control at 100 ppm [3] [%] | MIC (A.n) [µg/mL] | pest or weed control at 100 ppm [4] [%] | pest or weed control at 100 ppm ([1]; Puccinia recondita, 240 h, read-out: % control WLR) [%]
CCCCCCCCNC(=O)/C=C\SC(C(=O)Nc1ccc(Cl)cc1)C(=O)OCC (stereo not drawn) [Example 34, N-n-octyl-cis-3-{2-[ethyl-N-(4-chlorophenyl)malonamido]thio}acrylamide] | 50 | 50 | > 500 | 85 | 0 | 0 | > 500 | 50 | –
CCCCCCCCNC(=O)/C=C\SC(C(=O)NCc1ccccc1Cl)C(=O)OCC (stereo not drawn) [Example 38, N-n-octyl-cis-3-{2-[ethyl-N-(2-chlorobenzyl)malonamido]thio}acrylamide] | 95 | 0 | > 500 | 99 | 50 | 0 | 125 to 250 (≈ 266 to 533 µM) | 0 | –
CCCCCCCCNC(=O)/C=C\SC(C(=O)Nc1cccc(Cl)c1C)C(=O)OCC (stereo not drawn) [Example 39, N-n-octyl-cis-3-{2-[ethyl-N-(2-methyl-3-chlorophenyl)malonamido]thio}acrylamide] | 100 | 75 | > 500 | 100 | 50 | 0 | 500 (≈ 1070 µM) | 50 | –
CCCCCCCCNC(=O)/C=C\SC(C(=O)NCc1cccc(C)c1)C(=O)OCC (stereo not drawn) [Example 40, N-n-octyl-cis-3-{2-[ethyl-N-(3-methylbenzyl)malonamido]thio}acrylamide] | 100 | – | > 500 | 99 | 50 | 0 | 125 to 250 (≈ 279 to 557 µM) | 0 | 75
CCCCCCCCNC(=O)/C=C\SC(C(=O)Nc1ccc(Cl)c(Cl)c1)C(=O)OCC (stereo not drawn) [Example 52, N-n-octyl-cis-3-{2-[ethyl-N-(3,4-dichlorophenyl)malonamido]thio}acrylamide] | 80 | 0 | > 500 | 99 | 80 | 0 | > 500 | 0 | –
CCCCCCCCNC(=O)/C=C\SC(C(=O)Nc1cc(Cl)cc(Cl)c1)C(=O)OCC (stereo not drawn) [Example 55, N-n-octyl-cis-3-{2-[ethyl-N-(3,5-dichlorophenyl)malonamido]thio}acrylamide] | 80 | 0 | > 500 | 85 | 95 | 0 | > 500 | 50 | –
CCCCCCCCNC(=O)/C=C\SC(C(=O)NCc1ccccc1OC)C(=O)OCC (stereo not drawn) [Example 56, N-n-octyl-cis-3-{2-[ethyl-N-(2-methoxybenzyl)malonamido]thio}acrylamide] | 80 | 0 | > 500 | 100 | 90 | 0 | 250 (≈ 538 µM) | 0 | –
CCCCCCCCNC(=O)/C=C\SC(C(C)=O)C(=O)Nc1ccccc1C (stereo not drawn) [Example 57, N-n-octyl-cis-3-{2-[N-(2-methylphenyl)acetoacetamido]thio}acrylamide] | 0 | 0 | > 500 | 0 | 80 | 100 | 250 (≈ 618 µM) | 50 | –
CCCCCCCCNC(=O)/C=C\SC(C(=O)Nc1ccc(OC)cc1)C(=O)OCC (stereo not drawn) [Example 58, N-n-octyl-cis-3-{2-[ethyl-N-(4-methoxyphenyl)malonamido]thio}acrylamide] | 0 | 0 | > 500 | 100 | 0 | 0 | 250 (≈ 555 µM) | 0 | –
CCCCCCCCNC(=O)/C=C\SC(C(=O)Nc1c(C)cccc1Cl)C(=O)OCC (stereo not drawn) [Example 59, N-n-octyl-cis-3-{2-[ethyl-N-(2-chloro-6-methylphenyl)malonamido]thio}acrylamide] | 95 | 50 | > 250 | 99 | 50 | 0 | 250 (≈ 533 µM) | 0 | –
CCCCCCCCNC(=O)/C=C\SC(C(=O)NCc1ccc(OC)cc1)C(=O)OCC (stereo not drawn) [Example 60, N-n-octyl-cis-3-{2-[ethyl-N-(4-methoxybenzyl)malonamido]thio}acrylamide] | 80 | 0 | > 250 | 99 | 0 | 0 | > 250 | 0 | –
CCCCCCCCNC(=O)/C=C\SC(C(=O)Nc1ncccn1)C(=O)OCC (stereo not drawn) [Example 62, N-n-octyl-cis-3-{2-[ethyl-N-(2-pyrimidinyl)malonamido]thio}acrylamide] | 0 | 0 | > 250 | 85 | 0 | 0 | > 250 | 0 | –
CCCCCCCCNC(=O)/C=C\SC(C(=O)NCc1ccc([N+](=O)[O-])cc1)C(=O)OCC (stereo not drawn) [Example 64, N-n-octyl-cis-3-{2-[ethyl-N-(4-nitrobenzyl)malonamido]thio}acrylamide] | 0 | 50 | > 250 | 100 | 0 | 0 | > 250 | 50 | –
CCCCCCCCNC(=O)/C=C\SC(C(=O)NCc1cccc([N+](=O)[O-])c1)C(=O)OCC (stereo not drawn) [Example 65, N-n-octyl-cis-3-{2-[ethyl-N-(3-nitrobenzyl)malonamido]thio}acrylamide] | 80 | 50 | > 250 | 100 | 0 | 0 | > 250 | 0 | –
